These results are taken from paper PMC6600574 (Molecules, 2019).

“Also recorded” adds a separate entry of the source.

Data set [1] addresses T1, CYP 1A1 (placental microsomes) (Homo sapiens, UniProt P04798).
T1 construct: from tissue; host or cells: human placental microsomes
T1 sequence (P04798 1-512): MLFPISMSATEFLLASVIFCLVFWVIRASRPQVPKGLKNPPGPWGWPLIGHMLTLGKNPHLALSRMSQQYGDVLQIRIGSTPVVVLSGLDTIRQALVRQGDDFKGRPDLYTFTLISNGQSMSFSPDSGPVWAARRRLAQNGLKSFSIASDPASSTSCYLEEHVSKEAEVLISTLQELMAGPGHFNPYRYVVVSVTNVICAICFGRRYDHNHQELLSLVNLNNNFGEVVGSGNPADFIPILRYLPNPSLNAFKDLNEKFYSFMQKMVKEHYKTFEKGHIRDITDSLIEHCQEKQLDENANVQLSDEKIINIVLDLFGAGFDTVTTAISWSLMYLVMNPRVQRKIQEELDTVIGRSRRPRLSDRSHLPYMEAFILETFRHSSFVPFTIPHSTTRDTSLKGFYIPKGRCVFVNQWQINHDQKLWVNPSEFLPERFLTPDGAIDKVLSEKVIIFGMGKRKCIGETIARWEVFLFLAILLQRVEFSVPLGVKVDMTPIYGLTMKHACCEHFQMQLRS
Briefly: Inhibition of placental microsome-catalyzed CYP oxidation. The data set is classed as in vitro ADME. The settings on record: CYP 1A1, substrate TFD024, placental microsomes. As to the method:
(§1) Incubations were carried out in a total volume of 100 µl of 100 mM Tris-HCl buffer (pH 7.4) in all black, flat-bottom Costar 96-well plates (Corning Incorporated, Corning, NY, USA). […] The samples were then preincubated at 37 °C for 10 min. The reactions were initiated by the addition of NADPH, and 0–10 µM 7-hydroxycoumarin was used as the standard. The fluorescent signal was measured with a Victor^2 1420 multilabel plate counter (PerkinElmer Lifesciences Wallac, Turku, Finland) with excitation and emission wavelengths of 405 and 460 nm, respectively. Fluorescence was monitored every 2 min for 40 min from where the concentration was calculated at the various time points. From these, oxidation rates (µM/min) and the relative remaining activity of the sample at different concentrations were calculated. The data were fit to sigmoidal dose-response curves with nonlinear regression, and IC50 values (the concentration at which the sample reduced the metabolism of the CYP substrate by 50%) were determined. […] This was analyzed using nonlinear equations in Graph Pad Prism, which produced IC50 values and its 95% confidence interval as the results.

In data set [2] the test system is PBMCs. On the set-up: method as in Sipahi et al. (2016) [21]. The conditions noted are these: aqueous extract of verbascoside; ref Sipahi et al. (2016) [21]; read-out: PBMC cellular toxicity IC50; cited from earlier work.
For data set [3], the target named is T2, CYP1A2 (Homo sapiens, UniProt P05177).
T2 construct: purchased BD Biosciences Discovery Labware (Bedford, MA, USA)
Briefly: Inhibition of recombinant CYP oxidation (fluorescent coumarin substrate). It counts as in vitro ADME. The conditions noted are these: read-out: Recombinant CYP IC50 (µM) with 95% confidence intervals. As to the method:
as §1

Data set [4] deals with T3, CYP1B1 (Homo sapiens, UniProt Q16678).
T3 construct: purchased BD Biosciences Discovery Labware (Bedford, MA, USA)
T3 sequence (Q16678 1-543): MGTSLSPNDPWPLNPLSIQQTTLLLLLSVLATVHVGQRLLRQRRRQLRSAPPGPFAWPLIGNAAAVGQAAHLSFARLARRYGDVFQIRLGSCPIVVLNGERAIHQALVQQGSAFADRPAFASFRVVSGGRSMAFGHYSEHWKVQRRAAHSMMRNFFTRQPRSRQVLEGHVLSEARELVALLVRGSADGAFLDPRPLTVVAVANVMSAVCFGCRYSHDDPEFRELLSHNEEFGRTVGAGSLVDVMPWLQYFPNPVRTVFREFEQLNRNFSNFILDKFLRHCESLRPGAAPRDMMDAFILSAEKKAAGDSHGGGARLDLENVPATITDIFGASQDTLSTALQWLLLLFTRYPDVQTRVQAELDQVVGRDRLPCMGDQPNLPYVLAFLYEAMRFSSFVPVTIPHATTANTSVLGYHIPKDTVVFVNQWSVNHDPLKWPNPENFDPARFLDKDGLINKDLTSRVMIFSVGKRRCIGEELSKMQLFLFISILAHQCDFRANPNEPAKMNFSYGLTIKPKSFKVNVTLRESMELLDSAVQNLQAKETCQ
The description is as above. The settings on record: read-out: Recombinant CYP IC50 (µM) with 95% confidence intervals. The data set is classed as in vitro ADME. As to the method:
as §1

Data set [5] concerns the target T4, recombinant CYP 2A6 (Homo sapiens, UniProt P11509).
T4 construct: purchased BD Biosciences Discovery Labware (Bedford, MA, USA)
T4 sequence (P11509 1-494): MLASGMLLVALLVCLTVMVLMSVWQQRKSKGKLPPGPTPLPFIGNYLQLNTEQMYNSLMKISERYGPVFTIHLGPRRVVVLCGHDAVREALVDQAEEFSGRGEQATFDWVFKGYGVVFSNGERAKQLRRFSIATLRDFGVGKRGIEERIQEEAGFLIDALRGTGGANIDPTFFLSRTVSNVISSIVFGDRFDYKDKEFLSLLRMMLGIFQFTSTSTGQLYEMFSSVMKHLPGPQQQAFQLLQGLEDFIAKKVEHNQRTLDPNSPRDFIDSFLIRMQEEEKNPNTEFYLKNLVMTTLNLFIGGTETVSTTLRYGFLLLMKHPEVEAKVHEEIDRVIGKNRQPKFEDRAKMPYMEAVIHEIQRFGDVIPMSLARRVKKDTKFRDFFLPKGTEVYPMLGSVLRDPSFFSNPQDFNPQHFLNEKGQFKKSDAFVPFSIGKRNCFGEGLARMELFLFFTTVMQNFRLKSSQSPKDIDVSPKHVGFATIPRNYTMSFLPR
Described as above. It counts as in vitro ADME. The conditions noted are these: CYP 2A6, substrate coumarin, 5 nM recombinant CYP, verbascoside 0.4-50 µM. As to the method: as §1

Data set [6] deals with T5, CYP3A4 (Homo sapiens, UniProt P08684).
T5 construct: purchased BD Biosciences Discovery Labware (Bedford, MA, USA)
The data set is described as above. The data set is classed as in vitro ADME. The conditions noted are these: read-out: Recombinant CYP IC50 (µM) with 95% confidence intervals. As to the method: as §1

For data set [7], the target named is T6, recombinant CYP 2C19 (Homo sapiens, UniProt P33261).
T6 construct: purchased BD Biosciences Discovery Labware (Bedford, MA, USA)
Described as above. It counts as in vitro ADME. The settings on record: CYP 2C19, substrate TFD032, 5 nM recombinant CYP, verbascoside 0.4-50 µM. As to the method:
as §1

Data set [8] deals with T7, CYP2D6 (Homo sapiens, UniProt P10635).
T7 construct: purchased BD Biosciences Discovery Labware (Bedford, MA, USA)
Described as above. It counts as in vitro ADME. The conditions noted are these: read-out: Recombinant CYP IC50 (µM) with 95% confidence intervals. As to the method:
as §1

T6 sequence (P33261 whole entry): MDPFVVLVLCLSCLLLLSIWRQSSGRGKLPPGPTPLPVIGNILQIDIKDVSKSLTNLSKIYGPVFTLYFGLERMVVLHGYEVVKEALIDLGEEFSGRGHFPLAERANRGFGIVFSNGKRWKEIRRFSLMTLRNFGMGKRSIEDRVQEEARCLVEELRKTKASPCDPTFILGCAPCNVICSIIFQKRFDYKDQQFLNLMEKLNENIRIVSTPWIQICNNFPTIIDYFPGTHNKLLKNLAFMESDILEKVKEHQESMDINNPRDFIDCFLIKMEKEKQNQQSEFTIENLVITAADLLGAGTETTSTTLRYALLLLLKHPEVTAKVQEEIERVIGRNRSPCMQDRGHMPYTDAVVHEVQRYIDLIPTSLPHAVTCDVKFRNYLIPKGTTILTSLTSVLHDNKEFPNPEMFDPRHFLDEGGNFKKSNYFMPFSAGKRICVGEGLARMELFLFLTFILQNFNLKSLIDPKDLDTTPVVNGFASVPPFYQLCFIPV
T7 sequence (P10635 whole entry): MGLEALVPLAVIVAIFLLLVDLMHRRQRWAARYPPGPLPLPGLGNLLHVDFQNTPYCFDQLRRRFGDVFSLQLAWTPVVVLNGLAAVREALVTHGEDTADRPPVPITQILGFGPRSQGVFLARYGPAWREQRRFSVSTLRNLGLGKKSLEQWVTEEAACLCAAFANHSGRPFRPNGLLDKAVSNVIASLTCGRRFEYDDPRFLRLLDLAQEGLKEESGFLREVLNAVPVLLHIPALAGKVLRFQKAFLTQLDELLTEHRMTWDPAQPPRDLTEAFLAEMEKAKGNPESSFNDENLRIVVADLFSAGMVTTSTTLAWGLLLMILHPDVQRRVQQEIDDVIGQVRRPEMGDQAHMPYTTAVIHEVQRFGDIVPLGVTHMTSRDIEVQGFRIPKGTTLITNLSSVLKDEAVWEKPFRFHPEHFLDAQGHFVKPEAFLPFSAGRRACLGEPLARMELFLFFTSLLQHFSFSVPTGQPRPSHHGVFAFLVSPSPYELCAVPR
T5 sequence (P08684 whole entry): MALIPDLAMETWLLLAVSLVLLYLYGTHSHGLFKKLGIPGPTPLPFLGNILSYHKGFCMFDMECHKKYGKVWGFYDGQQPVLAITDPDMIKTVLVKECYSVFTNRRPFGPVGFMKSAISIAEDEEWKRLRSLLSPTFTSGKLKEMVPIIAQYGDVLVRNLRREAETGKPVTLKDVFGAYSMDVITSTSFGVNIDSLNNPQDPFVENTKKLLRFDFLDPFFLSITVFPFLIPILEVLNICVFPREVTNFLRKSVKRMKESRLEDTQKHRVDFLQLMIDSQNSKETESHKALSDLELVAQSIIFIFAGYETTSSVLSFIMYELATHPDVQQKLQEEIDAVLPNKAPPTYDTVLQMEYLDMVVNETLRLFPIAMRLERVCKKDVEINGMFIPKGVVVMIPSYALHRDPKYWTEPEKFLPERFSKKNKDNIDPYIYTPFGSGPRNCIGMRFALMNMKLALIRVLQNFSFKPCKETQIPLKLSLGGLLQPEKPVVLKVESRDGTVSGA
T2 sequence (P05177 whole entry): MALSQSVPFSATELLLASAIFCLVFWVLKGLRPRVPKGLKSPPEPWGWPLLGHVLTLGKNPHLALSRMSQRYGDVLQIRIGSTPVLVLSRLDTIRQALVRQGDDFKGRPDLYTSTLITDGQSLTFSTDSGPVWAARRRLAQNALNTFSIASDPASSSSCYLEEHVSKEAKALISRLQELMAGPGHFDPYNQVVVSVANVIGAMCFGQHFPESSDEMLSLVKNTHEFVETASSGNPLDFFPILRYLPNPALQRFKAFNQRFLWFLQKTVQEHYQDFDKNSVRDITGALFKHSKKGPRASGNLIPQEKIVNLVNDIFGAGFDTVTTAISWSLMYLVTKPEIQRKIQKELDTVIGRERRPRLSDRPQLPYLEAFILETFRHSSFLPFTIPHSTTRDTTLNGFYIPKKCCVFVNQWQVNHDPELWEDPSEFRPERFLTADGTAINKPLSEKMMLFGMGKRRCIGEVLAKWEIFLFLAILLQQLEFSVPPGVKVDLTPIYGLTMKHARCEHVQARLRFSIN

`C[C@@H]1O[C@@H](O[C@@H]2[C@@H](O)[C@H](OCCc3ccc(O)c(O)c3)O[C@H](CO)[C@H]2OC(=O)/C=C/c2ccc(O)c(O)c2)[C@H](O)[C@H](O)[C@H]1O` [Verbascoside]: the “Microsomal IC50 (µM) with 95% Confidence Intervals” value in data set [1] is given as “did not inhibit”. Further, the IC50 in data set [1] (read-out: Microsomal IC50 (µM) with 95% Confidence Intervals) was 350 µM; in data set [2] it was 384 µM; in data set [3] it was 83 µM; in data set [4], 86 µM; in data set [6], 314 µM; in data set [8] it was 131 µM. Further, the IC50 at 40 min in data set [3] (human, recombinant CYP1A2, pH 7.4) is above 50 µM; in data set [4] (human, recombinant CYP1B1, pH 7.4, probe TFD008 1 (3-(4-phenylacetate)-6-chlorocoumarin), 10 µM) it was above 50 µM; in data set [6] (human, recombinant CYP3A4, pH 7.4, probe OCA369 (3-(3-benzyloxo)phenyl-7-methoxycoumarin), 10 µM), above 50 µM; in data set [8] (human, recombinant CYP2D6, pH 7.4, probe TFD023 (3-(4-phenyl)-7-methoxycoumarin), 10 µM), above 50 µM. In addition, the “Recombinant CYP IC50 (µM) with 95% confidence intervals” value in data set [5] is given as “No inhibition”; in data set [5] (listed as verbascoside) it was “did not inhibit”; in data set [7], “Stimulation ^c”; in data set [7] (listed as verbascoside), “did not inhibit; also recorded: weak ability to stimulate”.

The term IC50 denotes the concentration that inhibits the measured activity by half.
